Source: article PMC9223658, “New Borane-Protected Derivatives of α-Aminophosphonous Acid as Anti-Osteosarcoma Agents: ADME Analysis and Molecular Modeling, In Vitro Studies on Anti-Cancer Activities, and NEP Inhibition as a Possible Mechanism of Anti-Proliferative Activity” (International Journal of Molecular Sciences, 2022)
Where two headings read alike, the source gives them in different places.

Experiments:
osteosarcoma HOS cells = experiment: MTT proliferation assay, 96 h; assay type: cell-based, human; conditions: proliferation, 10% FBS, read-out: IC50 (µM ± SD) HOS
Description: (§1) One of the features specific totumor cells is the unlimited potential for proliferation. […] To this end, the assay conditions were established suchthat they encourage the proliferation of OS cells, i.e., the cell cultures at low density were incubated with compounds diluted in the growth medium (10% FBS) for an extended time of 96 h. Additionally, cisplatin, i.e., a common cytostatic used in osteosarcoma treatment, was included as a positive control in this study. Moreover, since the new generation of anti-cancer compounds is highly desired to be inert (non-cytotoxic) towards normal cells, the influence of compounds 1–7 on the viability of human normal cells (osteoblasts hFOB 1.19 and colon fibroblasts CCD-18Co) was also determined.To this end, the assay conditions were established such that they restrict the proliferation of OS cells and to establish whether the compounds have cytotoxic potential, i.e., the cell cultures were incubated with compounds diluted in the medium with a reduced concentration of FBS (2%) for a shortened time of 24 h. […] However, this activity varied depending on both the types of the compounds and the osteosarcoma cell lines (Table 4).
(§2) The anti-proliferative activity of compounds 1–7 against the HOS and Saos-2 osteosarcoma cells and the viability of the human normal hFOB 1.19 and CCD-18Co cells were screened by means of the MTT method. This method is commonly used to assess cell viability and proliferation or to determine the cytotoxicity of any compounds. It is a reliable method for this purpose because it is based on measurement of the level reduction in MTT dye to formazan byNAD(P)H-dependent oxidoreductase enzymes of metabolically active cells.
(§3) To assess the anti-proliferative activity of compounds 1–7 against the HOS and Saos-2 osteosarcoma cells, 3.0 × 10^4 cells/mLseeded (low density culture) into 96-well plates (Nunc, Roskilde, Denmark) were incubated with each compound at concentrations of 3.125, 6.25, 12.5, 25, 50, 100 and 200 µM prepared in medium with 10% FBS (growth medium) for 96 h. Additionally, cisplatin (Sigma Aldrich), i.e., a common cytostatic used in osteosarcoma treatment, was included as a positive control in this study. It was tested in the same conditions as compounds 1–7. The negative control was constituted by the untreated cells (0 µM). Next, the MTT assay was carried out as described previously.
(§4) The results of these assays were calculated as a percent of the untreated cells (100%; control). Then, the IC50 (concentration resulting in 50% inhibition of proliferation) and CC50 (concentration resulting in a 50% decrease in viability) values were calculated from a non-linear regression (log(inhibitor) vs. normalized response-variable slope) using GraphPad Prism 5.0 (GraphPAD Software Inc., San Diego, CA, USA). The IC50 and CC50 results were presented as themean ± SD of at least three experiments. In the case of the BrdU assay, the results were presented as a percent of untreated cells (100%; control).

[1] = test system: osteosarcoma Saos-2 cells; experiment: MTT proliferation assay, 96 h; assay type: cell-based, human; conditions: MTT, 10% FBS, read-out: IC50 (µM ± SD) Saos-2
Description: as §1, §2, §3, §4

[2] = test system: active caspase 3 in HOS cells; experiment: Active caspase 3 assay (flow cytometry); assay type: cell-based, human; conditions: 3.5 µM (IC50 concentration), 72 h
Description: (§5) The level of active executor caspase 3 and initiator caspase 9 was determined to examine whether compounds 4 and 6 induced apoptosis in the HOS and Saos-2 cells. The influence of compounds 4 and 6 on HOS and Saos-2 were determined with the caspase 3 assay, whereas the influence of compound 6 on the HOS cells was investigated with the caspase 9 assay. In both assays, the osteosarcoma cells (3.0 × 10^5 cells/mL) were seeded in 6-well plates. The cells were treated with compounds 4 and 6 at concentrations of 12.5, 25, 50 µM and 20, 40, 80 µM as well as 15, 30, 60 µM and 21.25, 42.5, 85 µM for 72 h, respectively. The solutions of the compounds were prepared in a medium with 2% FBS. […] Next, floating and adherent cells were harvested and subjected to further steps of the staining procedures according to the manufacturer’s instruction. The level of active caspase 3 and caspase 9 was determined using the PE Active Caspase-3 Apoptosis Kit (BD Pharmingen^TM) and the CaspaTag^TM Caspase-9 in Situ Assay Kit (Millipore, Darmstadt, Germany), respectively. The number of stained cells (active caspase 3- or 9-positive cells) was measured using FACS Calibur, and the obtained data were analyzed using Cell Quest Pro Version 6.0. for the Macintosh operating system (BD Pharmingen™). The presented results were calculated as a percent of cells with either active caspase 3 or 9 among all the analyzed cells.

[3] = test system: active caspase 3 in Saos-2 cells; experiment: Active caspase 3 assay (flow cytometry); assay type: cell-based, human; conditions: Saos-2, 12.5 µM (IC50 concentration), 72 h
Description: as §5

[4] = test system: active caspase 9 in HOS cells; experiment: Active caspase 9 assay (flow cytometry); assay type: cell-based, human; conditions: 3.5 µM (IC50 concentration), 72 h
Description: as §5

[5] = MTT viability assay, 24 h; assay type: cell-based; conditions: human, 2% FBS
Description: as §1, §2
To assess the viability of human normal cells, confluent hFOB 1.19 (3 × 10^5 cells/mL) and CCD-18Co (1 × 10^5 cells/mL) cells seeded in 96-well plates (Nunc) were incubated with compounds 1–7 at concentrations of 3.125, 6.25, 12.5, 25, 50, 100 and 200 µM prepared in medium with 2% FBS (maintaining medium) for 24 h. The control was constituted by the untreated cells (0 µM). Next, the MTT assay was carried out as described previously.
as §4

NEP (neprilysin) = target: T1, NEP (neprilysin) (Homo sapiens, UniProt P08473); experiment: Neutral endopeptidase activity assay (fluorometric); assay type: biochemical
T1 construct: purchased BioVision, Waltham, MA, USA
T1 sequence (P08473 whole entry): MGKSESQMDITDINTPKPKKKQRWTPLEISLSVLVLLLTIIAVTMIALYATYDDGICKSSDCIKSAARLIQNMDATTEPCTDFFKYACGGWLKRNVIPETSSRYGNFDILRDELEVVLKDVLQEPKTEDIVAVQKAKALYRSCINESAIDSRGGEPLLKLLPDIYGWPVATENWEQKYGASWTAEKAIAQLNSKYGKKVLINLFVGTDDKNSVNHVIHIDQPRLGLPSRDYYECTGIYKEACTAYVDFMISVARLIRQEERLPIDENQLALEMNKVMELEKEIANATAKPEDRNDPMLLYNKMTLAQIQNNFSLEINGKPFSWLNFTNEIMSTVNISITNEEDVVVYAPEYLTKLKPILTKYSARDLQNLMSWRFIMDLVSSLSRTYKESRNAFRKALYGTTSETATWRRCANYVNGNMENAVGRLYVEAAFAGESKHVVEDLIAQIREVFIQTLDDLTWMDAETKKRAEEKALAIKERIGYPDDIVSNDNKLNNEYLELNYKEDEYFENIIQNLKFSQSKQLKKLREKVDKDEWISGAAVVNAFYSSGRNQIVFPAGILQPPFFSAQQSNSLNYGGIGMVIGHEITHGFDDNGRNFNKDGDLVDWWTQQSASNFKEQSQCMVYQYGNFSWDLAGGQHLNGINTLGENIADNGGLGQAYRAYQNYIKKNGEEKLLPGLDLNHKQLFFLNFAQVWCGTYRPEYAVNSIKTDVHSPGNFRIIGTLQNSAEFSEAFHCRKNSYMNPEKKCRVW
Description: The NEP activity in the presence of compounds 4 and 6 was determined using the Neprilysin Activity Assay Kit (BioVision, Waltham, MA, USA) according to the manufacturer’s instructions. The measurement is based on the ability of active neprilysin to cleave a synthetic substrate (Abz-based peptide) to release a fluorophore, which can be easily quantified using a fluorescence microplate reader. Briefly, pure neprilysin (5µLof stock solution) was incubated with solutions of the tested compounds (at least 4 concentrations in the range of 0.01–50 µM) for 10 min at 37 °C. The reaction was started by adding the substrate solution, and the final sample volume was 100µL. Fluorescence was measured (Ex/Em = 330/430nm) in the kinetic mode at 37 °C for 1–2 h. The same procedure was used to measure the control and background sample. Thiorphan was used as a reference NEP inhibitor. NEP activity was determined with the prepared Abz standard curve and expressed in µU/mL. The experiments were performed at least in triplicates, and the graphs represent mean ±SD values.

HOS cells = experiment: BrdU proliferation assay, 96 h; assay type: cell-based, human; conditions: for decrease in proliferation: 96 h
Description: (§6) In the study on the implication of NEP in the anti-proliferative activity of compound 4, cell proliferation was determined with the BrdU assay. Cell cultures were prepared as described above. Depending on the requirements, the HOS and Saos-2 cells were treated with non-cytotoxic concentrations of the NEP inhibitor—thiorphan (1, 5, 20, 100, 200, 500 µM) or pre-treated with thiorphan (100 µM) for 1 h. In this scheme, compound 4 (HOS—25 µM; Saos-2—60 µM) was added alone or in combination with the NEP inhibitor into the cell cultures. Finally, cell proliferation was evaluated with the BrdU Cell Proliferation Assay according to the manufacturer’s instructions (Millipore, Darmstadt, Germany) after a 96-h incubation.
as §4

Saos-2 cells = experiment: BrdU proliferation assay, 96 h; assay type: cell-based, human; conditions: for decrease in proliferation: 96 h
Description: as §6, §4

[6] = Homo sapiens, SAOS-2, proliferation
[7] = normal osteoblasts hFOB 1.19 cells, read-out: CC50 (µM ± SD) hFOB 1.19

IC50 (osteosarcoma HOS cells; Homo sapiens, HOS) [µM] | IC50 [1, 6] [µM] | SMILES | CC50 at 24 h [5, 7] [µM] | other results
 |  | [NH2][Pt]([NH2])([Cl])[Cl] [CDDP, cisplatin, reference compound] |  | IC50 (osteosarcoma HOS cells): 3.5 ± 0.92 µM; IC50 ([1]; proliferation): 12.8 ± 3.7 µM; increase in active caspase 3 vs untreated cells [2]: approx. 13%; increase in active caspase 3 vs untreated cells [3]: approx. 9%; increase in active caspase 9 vs untreated cells [4]: approx. 10%
164 ± 79.5 | 91 ± 19.4 | [BH3-][P+](Cc1ccccc1)(OC(C)C)OC(C)C [Compound 1, benzylphosphonous acid-borane diisopropyl ester] | 161 ± 22.9 | 
344 ± 142 | 83.4 ± 18.4 | [BH3-][P+](OC(C)C)(OC(C)C)C(C)(C)O [Compound 2, 1-hydroxy-1-methylethylphosphonous acid-borane diisopropyl ester] | 182 ± 28.1 | 
226 ± 3.56 | 79.6 ± 13.6 | [BH3-][P+](OC(C)C)(N(CC)CC)C(C)(C)O (stereo not drawn) [Compound 3, 1-hydroxy-1-methylethylphosphonous acid-borane isopropyl ester N,N-diethylamide] | 224 ± 95.3 | 
79.5 ± 22.9 | 96 ± 3.3 | [BH3-][P+](OC(C)C)(OC(C)C)C(Nc1ccc(O)cc1)c1ccccc1 (stereo not drawn) [Compound 5] | 43.9 ± 3.5 | CC50 at 24 h ([5]; normal colon fibroblasts CCD-18Co cells, read-out: CC50 (µM ± SD) CCD-18Co): 62.5 ± 36.2 µM
51.2 ± 18.6 | 109 ± 15.8 | [BH3-][P+](OC(C)C)(OC(C)C)C(Nc1ccc(Br)cc1)c1ccc(OC)cc1 (stereo not drawn) [Compound 7, [1-(N-p-bromophenylamino)]-1-(p-anisyl)methylphosphonous acid-borane diisopropyl ester] | 214 ± 39.5 | 
 |  | O=C(O)CNC(=O)C(CS)Cc1ccccc1 (stereo not drawn) [thiorphan, N-[2-(mercaptomethyl)-1-oxo-3-phenylpropyl]glycine] |  | decrease in NEP activity (NEP (neprilysin); 0.0005 µM): approx. 30%; decrease in NEP activity (NEP (neprilysin); 0.005 µM): approx. 50%; decrease in NEP activity (NEP (neprilysin); 0.01 µM): ~60%; effect on proliferation (HOS cells; 100 µM): did not affect cell proliferation; decrease in proliferation (HOS cells; 200 µM): approx. 30%; decrease in proliferation (HOS cells; 500 µM): ~40%; effect on proliferation (Saos-2 cells; Saos-2, 100 µM): did not affect cell proliferation; decrease in proliferation (Saos-2 cells; Saos-2, 200 µM): 35%; decrease in proliferation (Saos-2 cells; Saos-2, 500 µM): 60%
